The subject of one experiment is GLUT4. In words: GLUT4myc translocation (cell surface GLUT4myc density, ELISA) in L6-GLUT4myc skeletal muscle cells. Conditions: for Stimulation of GLUT4myc translocation, in words: L6-GLUT4myc muscle cells, 24 h incubation; for Effect on GLUT4 translocation compared with insulin: L6-GLUT4myc cells, insulin 100 nM positive control. The class given is cell-based, rat. The source says:
GLUT4 is the main glucose transporter in skeletal muscle. In the basal state, the majority of GLUT4 locate in vesicles of cytoplasma. In response to insulin, GLUT4 translocates to the cell membrane, therefore transport more glucose into cell. The rate of glucose transport is the rate-limiting step of glucose metabolism in skeletal muscle. […] In order to measure GLUT4 translocation, we use stable over expressing GLUT4myc rat muscle cell line, L6-GLUT4myc. The amount of GLUT4 on intact cell membrane was measured by ELISA with anti-myc antibody and HRP-conjugated secondary antibody. The OD value was detected at 492 nm.
The tested compounds were dissolved in DMSO as stock. The final solution was 1:1,000 dilution of the stock in low glucose DMEM.
The cells were treated with each compound at 2 to 5 different concentrations with triplicate in each group. The control group was treated with 0.1% DMSO. The blank group had no treatment. Insulin was used as positive control.
Myoblasts were cultured and differentiated into myotubes. Cells were serum starved for 4 hours, then incubated with different compounds at different concentrations for 24 hours or with 100 nM insulin for 20 min. Then cells were washed 3 times with ice-cold phosphate-butfered saline (PBS) supplemented with 1 mM Ca2+ and 1 mM Mg2+(PBS+), fixed with 3% (v/v) paraformaldehyde (PFA) in PBS+ for 10 min at 4° C., then 20 min at room temperature. The cells were washed twice with PBS+, quenched 10 min with 100 mM glycine in PBS+, blocked 10 min with ice-cold 5% (v/v) milk in PBS+, and reacted with polyclonal anti-myc antibody (1:250) for 1 hour. After washing 6 times with PBS+, cells reacted with HRP-bound goat anti-rabbit secondary antibody (1:5000) for 1 hour. The cells were washed 6 times with PBS+, and incubated with 1.0 ml OPD reagent and allowed to develop for 10-20 min. The reaction was stopped with 0.25 ml per well of 3 M HCl. Supernatants were collected and absorbance was measured at 492 nm. Background absorbance obtained in the absence of anti-myc antibody was subtracted from all values.
All data were presented as the means±SD. SPSS16.0 was used for statistical analysis. Data sets of more than two groups were compared using analysis of variance (One-Way ANOVA). Statistical significance was at a level of 5% (p<0.05).

The subject of another experiment is IR HepG2 cells. In words: Glucose consumption assay in IR HepG2 cells. The experiment is classed as cell-based, Human. Conditions: for EC50: Homo sapiens, insulin-resistant HepG2 cells, 24 h incubation with compound, read-out: EC50, effects on glucose consumption in IR HepG2 cells; for Antidiabetic activity (glucose consumption) compared with metformin, in words: IR HepG2 cells, comparison with metformin. As for the experimental part:
The compounds were dissolved in DMSO as stock. The final solution was 1:1,000 dilution of the stock in DMEM.
Human HepG2 cells were cultured in 96-well cluster plates, after achieving confluence, 10^−[…] insulin was treated for 36 h in serum-free and phenol red-free high-glucose DMEM. After this incubation, the cells were washed four times with high-glucose DMEM ([…]) and twice with phosphate-buffered saline. The cells were added to serum-free and phenol red-free high-glucose DMEM containing the various test compounds at different concentrations, incubated for 24 h, and then glucose content in the culture medium was measured using a glucose assay kit.
The enhancement ratio of glucose consumption (GC) was calculated as follows: GC %=(GC treatment group−GC of control group)/GC of control group×100.
The potencies of the products were expressed as median effective concentration (EC50) values.
All data were presented as the means±SD. SPSS10.0 was used for statistical analysis. Statistical significance was at a level of 5% (p<0.05).

Another experiment relates to ACC. The experiment can be described thus: Phosphorylation of ACC by western blotting in HepG2 cells. The class given is cell-based, Human. Conditions: 2 h incubation, western blot. Here is the method:
(§1) In this section, Western Blotting was used to assay the effect of these flavonoids on the phosphorylation of AMPK and ACC in HepG2 cells to illustrate the relationship between the mechanism of the flavonoids on glucose uptake and lipid metabolism and APMK signal pathway.
(§2) Whole cell lysate preparation: After serum-starving HepG2 cells, the cells were incubated with the flavonoids for 2 h, and then washed twice with PBS. Next, pre-chilled RIPA lysis buffer was added for 20 min at 4° C. The lysates were centrifuged at 13,000 rpm/min for 10 min at 4° C., and the supernatants were used for determination of total protein content. Forty micrograms of protein from the supernatant was aliquoted and its volume was adjusted to thirty microliters using deionized water and loading buffer. Lastly, the protein samples were heated at 65° C. for 15 min.
(§3) Western blot analysis: The samples were electrophoresed on 7.5% SDS-polyacrylamide gels, transferred to polyvinylidene fluoride membranes, blocked for 1 h in 5% (w/v) bovine serum albumin, and then incubated with primary antibodies overnight at 4° C. The membranes were washed three times with TBST and incubated with appropriate secondary antibodies conjugated to horse-radish peroxidase for 1 h at room temperature. The immunoreactive bands were detected using chemiluminescent reagent and autoradiographic film.

In the next experiment the test system is AMPK. In words: Phosphorylation of AMPK by western blotting in HepG2 cells. The experiment is classed as cell-based, Human. Conditions: 2 h incubation, western blot. Here is the method: as §1, §2, §3

This note sets out measurements from patent US8946457B2, “Flavone derivatives and their preparative method and medical use” (Tianjin Medical University, priority 2010, dated 2015).

“Also recorded” adds a separate entry of the source.

For `CC(C)c1ccc(/C=C/C(=O)COc2c(-c3ccc(O)cc3)oc3cc(O)cc(O)c3c2=O)cc1` [Compound I-10, 3-O-[(E)-4-(4-Isopropylphenyl)-2-oxobut-3-en-1-yl] kaempferol], the “Stimulation of GLUT4myc translocation, in words” value (from here on “Stimulation”) in the experiment with GLUT4 is recorded as “significantly stimulate GLUT4myc translocation”. Moreover, in the experiment with IR HepG2 cells, the half-maximal effective concentration (EC50) is 15 nM and the “Antidiabetic activity (glucose consumption) compared with metformin, in words” value was “comparable activity with that of metformin; also recorded: significantly superior to that of metformin”.
For the compound `CC(C)(C)c1ccc(/C=C/C(=O)COc2c(-c3ccc(O)cc3)oc3cc(O)cc(O)c3c2=O)cc1` [Compound I-9, 3-O-[(E)-4-(4-(tert-Butyl)phenyl)-2-oxobut-3-en-1-yl] kaempferol], in the experiment on IR HepG2 cells, the EC50 worked out at 13 nM and the “Antidiabetic activity (glucose consumption) compared with metformin, in words” value is “comparable activity with that of metformin; also recorded: significantly superior to that of metformin”.
Regarding `CN(C)C(=N)N=C(N)N` [metformin, reference compound], in the experiment with IR HepG2 cells, the EC50 came to 270 nM.
For the compound `CCOc1ccc(/C=C/C(=O)COc2c(-c3ccc(O)cc3)oc3cc(O)cc(O)c3c2=O)cc1` [Compound I-4, 3-O-[(E)-4-(4-Ethoxyphenyl)-2-oxobut-3-en-1-yl] kaempferol], in the experiment with IR HepG2 cells, the EC50 amounted to 42 nM and the “Antidiabetic activity (glucose consumption) compared with metformin, in words” value is “comparable activity with that of metformin; also recorded: significantly superior to that of metformin”.
Turning to `O=C(/C=C/c1ccc(Cl)c(Cl)c1)COc1c(-c2ccc(O)cc2)oc2cc(O)cc(O)c2c1=O` [Compound I-16, 3-O-[(E)-4-(3,4-Dichlorophenyl)-2-oxobut-3-en-1-yl] kaempferol], the EC50 with IR HepG2 cells amounted to 2590 nM.
`COc1ccc(/C=C/C(=O)COc2c(-c3ccc(O)cc3)oc3cc(O)cc(O)c3c2=O)cc1` [Compound I-3, 3-O-[(E)-4-(4-Methoxyphenyl)-2-oxobut-3-en-1-yl] kaempferol]: the “Stimulation” value in the experiment on GLUT4 is on record as “significantly stimulate GLUT4myc translocation”. In the experiment on IR HepG2 cells, the EC50 is 149 nM and the “Antidiabetic activity (glucose consumption) compared with metformin, in words” value is recorded as “comparable activity with that of metformin; also recorded: significantly superior to that of metformin”.
With `O=C(/C=C/c1ccccc1)COc1c(-c2ccc(O)cc2)oc2cc(O)cc(O)c2c1=O` [Compound I-5, 3-O-[(E)-(2-Oxo-4-phenylbut-3-en-1-yl)] kaempferol], the EC50 with IR HepG2 cells was determined as 473 nM.
The same measure, in the same setting: for `O=C(/C=C/c1ccc(Br)cc1)COc1c(-c2ccc(O)cc2)oc2cc(O)cc(O)c2c1=O` [Compound I-13, 3-O-[(E)-4-(4-Bromophenyl)-2-oxobut-3-en-1-yl] kaempferol] the value was 393 nM.
In the case of `O=C(/C=C/c1ccc(F)cc1)COc1c(-c2ccc(O)cc2)oc2cc(O)cc(O)c2c1=O` [Compound I-14, 3-O-[(E)-4-(4-Fluorophenyl)-2-oxobut-3-en-1-yl] kaempferol], the “Stimulation” value in the experiment on GLUT4 is reported as “significantly stimulate GLUT4myc translocation”. For the same compound, the EC50 in the experiment with IR HepG2 cells worked out at 669 nM.
Regarding `O=C(/C=C/c1ccc(Cl)cc1)COc1c(-c2ccc(O)cc2)oc2cc(O)cc(O)c2c1=O` [Compound I-15, 3-O-[(E)-4-(4-Chlorophenyl)-2-oxobut-3-en-1-yl] kaempferol], in the experiment with IR HepG2 cells, the EC50 was determined as 1080 nM.
On the same count and under the same terms, in the case of `O=C(/C=C/c1ccc(O)c(Cl)c1)COc1c(-c2ccc(O)cc2)oc2cc(O)cc(O)c2c1=O` [Compound I-11, 3-O-[(E)-4-(3-Chloro-4-hydroxyphenyl)-2-oxobut-3-en-1-yl] kaempferol] it was 3560 nM.
Consider `N#Cc1ccc(/C=C/C(=O)COc2c(-c3ccc(O)cc3)oc3cc(O)cc(O)c3c2=O)cc1` [Compound I-12, 3-O-[(E)-4-(4-Cyanophenyl)-2-oxobut-3-en-1-yl] kaempferol], for which, in the experiment on ACC, the “Phosphorylation of ACC” value is reported as “significantly stimulate the phosphorylation”. The “Effect on GLUT4 translocation compared with insulin” value with GLUT4 (2 μg/ml) and with GLUT4 (5 μg/ml) was “higher effect on GLUT4 translocation than insulin; also recorded: strongest effect on promoting glucose transporter 4 translocation than insulin” throughout. Besides, the “Stimulation” value with GLUT4 is on record as “strongest effect; also recorded: significantly stimulate GLUT4myc translocation”. In addition, the “Phosphorylation of AMPK” value in the experiment with AMPK is recorded as “significantly stimulate the phosphorylation”. Besides, the concentration giving a half-maximal response (EC50) with IR HepG2 cells turned out to be 3 nM. Moreover, in the experiment with IR HepG2 cells, the “Antidiabetic activity (glucose consumption) compared with metformin, in words” value is “comparable activity with that of metformin; also recorded: significantly superior to that of metformin; also recorded: strongest antidiabetic activity; also recorded: greater than that of marketed drug metformin”.
For `COc1ccc(/C=C/C(=O)COc2c(-c3ccc(O)cc3)oc3cc(O)cc(O)c3c2=O)cc1O` [Compound I-7, 3-O-[(E)-4-(3-Hydroxy-4-methoxyphenyl)-2-oxobut-3-en-1-yl]kaempferol], the EC50 with IR HepG2 cells stood at 5070 nM.
Consider `O=C(/C=C/c1ccc(O)cc1)COc1c(-c2ccc(O)cc2)oc2cc(O)cc(O)c2c1=O` [Compound I-1, 3-O-[(E)-4-(4-Hydroxyphenyl)-2-oxobut-3-en-1-yl] kaempferol], for which, in the experiment with IR HepG2 cells, the EC50 worked out at 368 nM and the “Antidiabetic activity (glucose consumption) compared with metformin, in words” value was “comparable activity with that of metformin”.
For `O=C(/C=C/c1ccc(OCc2ccccc2)cc1)COc1c(-c2ccc(O)cc2)oc2cc(O)cc(O)c2c1=O` [Compound I-2, 3-O-[(E)-4-(4-(Benzyloxyphenyl))-2-oxobut-3-en-1-yl] kaempferol], the “Stimulation” value in the experiment with GLUT4 is “significantly stimulate GLUT4myc translocation”. In addition, the EC50 in the experiment on IR HepG2 cells was found to be 658 nM.
Take `Cc1ccc(/C=C/C(=O)COc2c(-c3ccc(O)cc3)oc3cc(O)cc(O)c3c2=O)cc1` [Compound I-6, 3-O-[(E)-(2-Oxo-4-(p-tolyl)but-3-en-1-yl)] kaempferol]: in the experiment with IR HepG2 cells, the EC50 was 10 nM and the “Antidiabetic activity (glucose consumption) compared with metformin, in words” value is “comparable activity with that of metformin; also recorded: significantly superior to that of metformin”.
`COc1cc(/C=C/C(=O)COc2c(-c3ccc(O)cc3)oc3cc(O)cc(O)c3c2=O)ccc1O` [Compound I-8, 3-O-[(E)-4-(3-Methoxy-4-hydroxyphenyl-)-2-oxobut-3-en-1-yl]kaempferol]: in the experiment with IR HepG2 cells, the EC50 came to 6190 nM.
